Measured values reported in article PMC8540642, “Antineoplastic Activity of Rhus trilobata Nutt. (Anacardiaceae) against Ovarian Cancer and Identification of Active Metabolites in This Pathology” (Plants, 2021).
Read-outs that look alike come from different tables or passages of the source.

Experiments:
[1] = system: SKOV-3 cells; test: MTT cell viability, dose-response curves 24 h; format: cell-based, human; conditions: Homo sapiens, SK-OV-3, MTT, 24 h, read-out: IC50 (half-maximal inhibitory concentration), SKOV-3
Procedure: (§1) Cultures (2 × 10^4 cells/well) were seeded with 200 μL of supplemented medium (Sigma®) in 96-well plates (Corning®, Corning, NY, USA) and incubated for 24 h. Cell treatments were 5-200 μg/mL of samples/controls for 24 h. At the end of the treatments, we added MTT (5 mg/mL, Sigma®) for 4 h of incubation, and optical density was measured at λ = 590 nm in a VariosKan® Flash (Thermo-Scientific®, Waltham, MA, USA). The half-maximal inhibitory concentration (IC50) was determined.

[2] = system: CACO-2 cells; test: MTT cell viability, dose-response curves 24 h; format: cell-based; conditions: Homo sapiens, Caco-2, MTT, 24 h, read-out: IC50 (half-maximal inhibitory concentration), CACO-2
Procedure: as §1

[3] = system: BEAS-2B cells; test: MTT cell viability, dose-response curves 24 h; format: cell-based; conditions: Homo sapiens, BEAS-2B, MTT, read-out: IC50 (half-maximal inhibitory concentration), BEAS-2B
Procedure: as §1

[4] = system: OVCAR-3 cells; test: MTT cell viability, dose-response curves 24 h; format: cell-based; conditions: Homo sapiens, OVCAR-3, MTT, 24 h, read-out: IC50 (half-maximal inhibitory concentration), OVCAR-3
Procedure: as §1

[5] = system: CHO-K1 cells; test: MTT cell viability, dose-response curves 24 h; format: cell-based; conditions: Cricetulus griseus, CHO-K1, 24 h, MTT, 24 h, read-out: IC50 (half-maximal inhibitory concentration), CHO-K1
Procedure: as §1

[6] = system: SKOV-3 cells; test: Apoptosis (ApoTox-Glo Triplex caspase-3/7, ApoAlert DNA fragmentation/TUNEL); format: cell-based, human; conditions: 24 h, vehicle group 2.47% ± 0.4%
Procedure: Cells (2 × 10^4/per well) were cultivated in 96-well black plates (Corning®, Corning, NY, USA) with 100 μL of supplemented medium (Sigma®, St. Louis, MO, USA) and incubated for 24 h. Treatments on adherent cells were conducted at 5-20 μg/mL of samples/controls for 24 h. Then, ApoTox-Glo™ Triplex Assay (Promega®, Madison, WI, USA) was used to determine events of viability (proliferation), cytotoxicity (necrosis), and apoptosis (caspase-3/7 activation). Additionally, apoptosis was confirmed by an ApoAlert™ DNA Fragmentation Assay (Clontech®, Kusatsu, Shiga, J.P.). Both assays were performed according to each manufacturer’s instructions. Finally, optical density was measured in a VariosKan® Flash (Thermo-Scientific®, Waltham, MA, USA).

IC50 [1]: 7 µg/mL | IC50 ([1]; value in brackets): 8.2 µM | IC50 [2]: 20 µg/mL | IC50 ([2]; value in brackets): 23.4 µM | IC50 [4]: 8 µg/mL | IC50 ([4]; value in brackets): 9.37 µM
Structure (SMILES): CC(=O)O[C@H]1C(=O)[C@@]2(C)[C@H]([C@H](OC(=O)c3ccccc3)[C@]3(O)C[C@H](OC(=O)[C@H](O)[C@@H](NC(=O)c4ccccc4)c4ccccc4)C(C)=C1C3(C)C)[C@]1(OC(C)=O)CO[C@@H]1C[C@@H]2O [Paclitaxel, paclitaxel, reference compound]
IC50 [3]: 8 µg/mL | IC50 ([3]; value in brackets): 9.37 µM | IC50 [5]: 10 µg/mL | IC50 ([5]; value in brackets): 11.7 µM | apoptosis: caspase-3/7 activity and nuclear DNA-fragmentation [6]: 46.42% ± 5.0%
